Test results taken from patent publication US10059760B2 (priority 2014, dated 2018).
Like-named read-outs stand apart in the source and are kept apart here.

Conditions: mouse, in vivo

## O=C(O)c1cn(C2CC2)c2cc(N3CCNCC3)c(F)cc2c1=O [ciprofloxacin]
sc, 25 mg/kg
  tolerance: favorably tested

## C[C@H]1c2cccc(O)c2C(=O)C2=C(O)[C@]3(O)C(=O)C(C(N)=O)=C(O)[C@@H](N(C)C)[C@@H]3[C@@H](O)[C@@H]21 [doxycycline]
50 mg/kg
  tolerance: poorly tolerated
